The test system of one test is HeLa (Cervix). More on the design: method as in PMID 31356736. Conditions: cited from earlier work.
In another test the test system is SW1573 (Lung). On the set-up: method as in PMID 31356736. Conditions: cited from earlier work.
The next test deals with T-47D (Breast). On the set-up: method as in PMID 31356736. Conditions: cited from earlier work.
The test system of another test is A549 (Lung). More on the design: method as in PMID 31356736. Conditions: cited from earlier work.
Another test relates to HBL-100 (Breast). More on the design: method as in PMID 31356736. The note with it: cited from earlier work.
Test [1] deals with T24 cells. Nature of the test: Antiproliferative activity with hemoglobin (NO scavenger), SRB assay. Conditions: Hb 0 or 50 µM 1 h pretreatment, compounds 10 µM, 48 h, Figure 4. The format is cell-based, human. As for the experimental part: In this context, we next decided to study the effect of ·NO on their antiproliferative activity against T24 cells after incubation with an ·NO scavenger (Hb, hemoglobin). For this purpose, T24 cells were pretreated for 1 h with 0 or 50 µM of Hb and then the ·NO-donor compounds were added at 10 µM for 48 h. […] However, while for some compounds, such as 8d, ·NO release seems to be crucial for the antiproliferative activity, for others, such as Ugi-Fx (8a), other mechanisms would account for its anticancer effect. It is well-known that the action of 3-phenylsulfonylfuroxan derivatives is connected to ⋅NO release due to their interaction with free intracellular thiols or thiol groups of proteins. However, this action may also involve a covalent bond to thiol biomolecules with the concomitant displacement of the phenylsulfonyl group, leading to a cytotoxic adduct accumulation in the cell milieu. […] Further studies to elucidate the possible mechanisms of action involved will be performed.
To investigate the contribution of ⋅NO to the antiproliferative activity of the studied compounds, we tested their effect on T24 bladder cancer cell growth in the absence and presence of Hb. Cells were seeded into a 96-well plate at 8 × 10^3 cells per well and were allowed to attach for 24 h. […] Then, the antiproliferative activity was assessed by the SRB assay in at least three independent experiments. […]
On the technique in general: The SRB assay estimates cell density from bound dye.

In test [2] the test system is T24 cells. The test is described as follows: Antiproliferative activity, sulforhodamine B assay, T24 bladder cancer cells. The format is cell-based, human. The note with it: SRB, mean (±SEM). On the procedure: (§1) In vitro antiproliferative activity of the compounds was determined in cells derived from bladder cancer (T24) and prostate cancer (LNCaP). The cells were incubated in the presence of the compounds for 48 h. The antiproliferative activity was determined using the sulforhodamine B assay. The results were expressed as GI50, which is the drug concentration resulting in a 50% reduction of cellular net growth when compared with the values of untreated control cells. The standard anticancer drug cisplatin was used as a positive control, and furoxan 3 and 11a were also included as ⋅NO donor reference compounds. The results are summarized in Table 2 for the Ugi product 7a, Ugi-Fx (8a) and 8b–g Ugi-furoxan derivatives, and GBB product 10 and 12a–e GBB-furoxan derivatives.
(§2) The T24 cells were grown in McCoy’s 5A (Biological Industries) supplemented with 10% FBS (Capricorn Scientific). The cells were passaged twice per week, and the culture medium was changed with the same frequency. The LNCaP cells were maintained in RPMI media (Biological Industries) supplemented with 10% FBS (Capricorn Scientific) and 10% of its own conditioned medium (complete media). The cells were passaged once per week, and the medium was changed with the same frequency. The HaCaT cells (immortalized human keratinocytes) were cultured in Dulbecco’s modified Eagle medium (Biological Industries) supplemented with 10% FBS (Capricorn Scientific). The cells were passaged twice per week, and the medium was changed with the same frequency. The cell cultures were maintained under a humidified 5% CO2 atmosphere at 37 °C.
(§3) For viability assays, cells were treated with a 0.25% Trypsin–0.05% EDTA solution and plated in 96-well plates in complete medium the day before the experiment. The cells were seeded in a 96-well plate at densities of 8 × 10^3 cells per well for T24 cells, 12.5 × 10^3 cells per well for LNCaP cells, and 10 × 10^3 cells per well for HaCaT cells. The cultures were allowed to attach for 24 h in a humidified 5% CO2 atmosphere at 37 °C. Then, the cells were treated with increasing concentrations of the compounds (0.4–100.0 µM) prepared in complete medium using stock solutions in DMSO and were kept for 48 h in a CO2 incubator. Wells with only media or 0.5% DMSO were added as controls. The antiproliferative activity of the compounds was assayed using the SRB method in at least three independent experiments.

In the next test the test system is LNCaP cells. The test is described as follows: Antiproliferative activity, sulforhodamine B assay, LNCaP prostate cancer cells. The format is cell-based, human. Conditions: Homo sapiens, 48 h, SRB, mean (±SEM). As for the experimental part: as §1, §2, §3
The next test has as its system WiDr (Colon). On the set-up: method as in PMID 31356736. The note with it: cited from earlier work.
The subject of test [3] is HaCaT cells. The test is described as follows: Cytotoxicity in non-cancer keratinocytes, sulforhodamine B assay. The format is cell-based. The note with it: HaCaT human keratinocytes, 0.4–100 µM, SRB; mean (±SEM). As for the experimental part:
As a first approximation of the safety profile of the synthesized compounds and to determine the cytotoxic selectivity against cancer cells, the antiproliferative activity in non-cancer cells was studied. This evaluation was carried out in human keratinocyte HaCaT cells with 0.4–100 µM of the test compounds using the sulforhodamine B assay. The selectivity index (SI) was calculated for these compounds by dividing the GI50 for HaCaT by the GI50 for each cancer cell line. […] The derivatives Ugi-Fx (8a) and 12e stand out, with selectivity indices of 14.5 and 10.8, respectively. […] Concerning the LNCaP prostate cancer cell line, as for the reference drug, no selectivity was observed. […] Therefore, this new GBB-furoxan derivative can be a starting point in the design of new structures with improved selectivity.
as §2, §3

The subject of test [4] is HaCaT cells. More on the design: method as in PMID 30489292. The note with it: HaCaT human keratinocytes; cited from earlier work.

Like-named read-outs stand apart in the source and are kept apart here.

As for `Cc1ccc(N(C(=O)c2cccc(Oc3no[n+]([O-])c3S(=O)(=O)c3ccccc3)c2)C(C(=O)NC(C)(C)C)c2ccccc2)cc1` (stereo not drawn) [Ugi-Fx (8a), N-[1-(tert-butylaminocarbonyl)-1-phenylmethyl]-N-(4-methylphenyl)-3-[3-(phenylsulfonyl)-[1,2,5]oxadiazol-4-yl N2-oxide]oxyphenylcarboxamide], the concentration for 50% growth inhibition (GI50) (usually the concentration giving 50% growth inhibition) is 1.8 µM in the test on HeLa (Cervix); 0.021 µM in the test on SW1573 (Lung); 1.9 µM with T-47D (Breast); 2.3 µM with A549 (Lung); 0.23 µM in the test with HBL-100 (Breast); 0.73 µM in the test with T24 cells [2] (Homo sapiens, T-24, 48 h). In addition, the GI50 in the test with LNCaP cells was 20.2 µM; in the test with WiDr (Colon), 3 µM; in the test on HaCaT cells [3], 10.6 µM. In addition, in the test with T24 cells [1], the “Effect of hemoglobin on antiproliferative effect (cell growth inhibition)” value is on record as “high antiproliferative activity even in the presence of a ⋅NO scavenger”. For the same compound, in the test with T24 cells [2] (48 h), the “GI50 T24” value is recorded as “sub-micromolar range”.
For `O=S(=O)(c1ccccc1)c1no[n+]([O-])c1S(=O)(=O)c1ccccc1` [compound 2, 3,4-bis(phenylsulfonyl)furoxan], the GI50 in the test on HaCaT cells [4] is 1.47 µM.

The record behind these values is paper PMC8955377, “Greener Synthesis of Antiproliferative Furoxans via Multicomponent Reactions” (Molecules, 2022).
